Measurements taken from PMC11724923 (Nature Communications, 2025).

How the values were obtained:
PRDX1 [1] = target: T1, PRDX1 (Homo sapiens, UniProt Q06830); assay: SPR with sodium palmitate; assay type: binding
T1 sequence (Q06830 1-199): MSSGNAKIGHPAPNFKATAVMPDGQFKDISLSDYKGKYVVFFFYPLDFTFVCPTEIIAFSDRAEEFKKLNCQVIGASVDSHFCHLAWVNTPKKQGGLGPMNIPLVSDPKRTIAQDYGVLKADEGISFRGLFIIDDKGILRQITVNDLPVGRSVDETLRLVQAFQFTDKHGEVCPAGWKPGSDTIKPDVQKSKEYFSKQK

PRDX1 [2] = target: T1, PRDX1; assay: SPR; assay type: binding
crystal structure = target: the molecule itself; assay: crystal structure

CCCCCCCCCCCCCCCC(=O)O [PA, palmitic acid]
Kd (PRDX1 [1]): 75.3 ± 4.5 µM

O=C(/C=C/c1ccc(O)c(O)c1)O[C@H](Cc1ccc(O)c(O)c1)C(=O)O [RA, rosmarinic acid]
Kd (PRDX1 [2]): 0.3757 ± 0.0025 µM

B1: PRDX1^C52SC83S (aa 1-175) (enzyme, human, UniProt Q06830 1-175, looked up)
chain: MSSGNAKIGHPAPNFKATAVMPDGQFKDISLSDYKGKYVVFFFYPLDFTFVSPTEIIAFSDRAEEFKKLNCQVIGASVDSHFSHLAWVNTPKKQGGLGPMNIPLVSDPKRTIAQDYGVLKADEGISFRGLFIIDDKGILRQITVNDLPVGRSVDETLRLVQAFQFTDKHGEVCPA
binding result (crystal structure): binds
